A short description of this series: Plasma noribogaine pharmacokinetics in healthy volunteers (Example 7). The following applies: for AUC0-216 / AUC0-∞ / CL/F / Tmax / t1/2: mean. Type of series: in vivo, human.
The mark [1] stands for this setting: human plasma, single oral 3 mg (n = 6).
The mark [2] stands for this setting: human plasma, single oral 10 mg (n = 6).
Where [3] appears, read: human plasma, single oral 30 mg (n = 6).
Where [4] appears, read: human plasma, single oral 60 mg (n = 6).

The values that follow come from US20160271139A1, “METHOD FOR NON-TOXIC TREATMENT FOR DRUG WITHDRAWAL” (DEMERX, INC., priority 2013, published 2016).

With `CC[C@H]1C[C@H]2C[C@H]3c4[nH]c5ccc(O)cc5c4CCN(C2)[C@@H]13` [noribogaine], the “Dose proportionality of Cmax and AUC” value (human plasma, 3-60 mg) is listed as “increased linearly with dose”. Moreover, the Mean half-life estimates (human plasma, across dose groups) was 28 to 50 h. Also, where the note is “human plasma, across dose groups 3-60 mg”, the “Time of peak concentrations after oral dosing” value was 2 to 3 h. Under setting [1], the AUC0-216 turned out to be 72.2 ng·h/mL, the “AUC0-∞” value is 74.2 ng·h/mL, the CL/F is 41.4 L/h and the Tmax was 1.9 h. This compound yielded a t1/2 under setting [1] of 40.9 h. For the same compound, under setting [2], the AUC0-216 was 251.4 ng·h/mL, the “AUC0-∞” value is 254.5 ng·h/mL, the CL/F was determined as 42.3 L/h and the time to peak (Tmax) amounted to 2.9 h. The compound further gave a t1/2 under setting [2] of 49.2 h. Besides, under setting [3], the AUC0-216 was determined as 677.6 ng·h/mL, the “AUC0-∞” value was found to be 700.4 ng·h/mL, the CL/F was found to be 46.9 L/h and the Tmax came out at 1.8 h. Further, the t1/2 under setting [3] was determined as 27.6 h. Under setting [4], the AUC0-216 turned out to be 1935.4 ng·h/mL, the “AUC0-∞” value is 1962.2 ng·h/mL, the apparent clearance CL/F is 34.0 L/h and the time of peak concentration (Tmax) was determined as 2.4 h. For the same compound, the t1/2 under setting [4] amounted to 29.1 h. The same compound came in with a Volume of distribution (human, across dose groups) of 1417 to 3086 L.
